Source: patent US9345247B2, “Azaindole carboxylic acid amides and azaindole thiocarboxylic acid amides for use as insecticides and acaricides” (BAYER CROPSCIENCE AG, priority 2012, dated 2016)
Read-outs that look alike come from different tables or passages of the source.

Experiments:
Boophilus microplus = Boophilus microplus test (BOOPMI injection); assay type: in vivo; details: 20 μg/animal, after 7 days
Experimental: Boophilus microplus Test (BOOPMI Injection) [table] To produce a suitable active compound formulation, 10 mg of active compound are mixed with 0.5 ml of solvent and the concentrate is diluted with solvent to the desired concentration. The active compound solution is injected into the abdomen (Boophilus microplus), and the animals are transferred into dishes and stored in a climate-controlled room. After 7 days, the efficacy in % is determined. The activity is assessed by laying of fertile eggs. 100% means that none of the ticks has laid any fertile eggs.

[1] = system: greenhouse red spider mite (Tetranychus urticae); assay: Tetranychus urticae spray test, OP-resistant (TETRUR); assay type: in vivo; details: for efficacy: 100 g/ha, spray, after 6 days
Experimental: (§1) To produce a suitable active compound formulation, 1 part by weight of active compound is mixed with the stated amounts of solvent and emulsifier, and the concentrate is diluted with emulsifier-containing water to the desired concentration.
Discs of bean leaves (Phaseolus vulgaris) infested by all stages of the greenhouse red spider mite (Tetranychus urticae) are sprayed with an active compound formulation of the desired concentration.
After 6 days, the efficacy in % is determined 100% means that all the spider mites have been killed; 0% means that none of the spider mites have been killed. […]

[2] = system: green peach aphid (Myzus persicae); assay: Myzus persicae spray test (MYZUPE); assay type: in vivo; details: 100 g/ha, after 6 days
Experimental: Myzus persicae-Spray Test (MYZUPE) [table] To produce a suitable active compound formulation, 1 part by weight of active compound is mixed with the stated amounts of solvent and emulsifier, and the concentrate is diluted with emulsifier-containing water to the desired concentration. Discs of Chinese cabbage leaves (Brassica pekinensis) infested by all stages of the green peach aphid (Myzus persicae) are sprayed with an active compound formulation of the desired concentration. After 6 days, the efficacy in % is determined 100% means that all the aphids have been killed; 0% means that none of the aphids have been killed.

[3] = system: larvae of the mustard beetle (Phaedon cochleariae); assay: Phaedon cochleariae spray test (PHAECO); assay type: in vivo; details: for efficacy / pest or weed control at 100 g/ha: 100 g/ha, spray, after 7 days; for pest or weed control at 100 g/ha: read-out: efficacy
Experimental: Phaedon cochleariae—Spray Test (PHAECO)
(§2) To produce a suitable preparation of active compound, 1 part by weight of active compound is mixed with the stated amounts of solvent and emulsifier, and the concentrate is diluted with emulsifier-containing water to the desired concentration.
Discs of Chinese cabbage leaves (Brassica pekinensis) are sprayed with an active compound formulation of the desired concentration and, after drying, populated with larvae of the mustard beetle (Phaedon cochleariae).
After 7 days, the efficacy in % is determined. 100% means that all the beetle larvae have been killed; 0% means that no beetle larvae have been killed.
After the stated period of time, the effect in % is determined 100% means that all the beetle larvae have been killed; 0% means that no beetle larvae have been killed.

[4] = system: caterpillars of the armyworm (Spodoptera frugiperda); assay: Spodoptera frugiperda spray test (SPODFR); assay type: in vivo; details: for efficacy: 100 g/ha, spray, after 7 days
Experimental: Spodoptera frugiperda—Spray Test (SPODFR)
as §1
Leaf discs of maize (Zea mays) are sprayed with an active compound formulation of the desired concentration and, after drying, populated with caterpillars of the armyworm (Spodoptera frugiperda).
After 7 days, the efficacy in % is determined. 100% means that all the caterpillars have been killed; 0% means that no caterpillars have been killed.
as §2
Leaf discs of maize (Zea mays) are sprayed with an active compound preparation of the desired concentration and, after drying, populated with caterpillars of the armyworm (Spodoptera frugiperda).
After the stated period of time, the effect in % is determined. 100% means that all the caterpillars have been killed; 0% means that no caterpillars have been killed.

Ctenocephalides felis = assay: Ctenocephalides felis; oral (CTECFE); assay type: in vivo; details: 100 ppm, oral in cattle blood, after 2 days
Experimental: Ctenocephalides felis; Oral (CTECFE)
To produce a suitable active compound formulation, 10 mg of active compound are mixed with 0.5 ml of dimethyl sulphoxide. A portion of the concentrate is diluted with citrated cattle blood, and the desired concentration is prepared.
About 20 unfed adult fleas (Ctenocephalides felis) are placed into a chamber which is closed at the top and bottom with gauze. A metal cylinder whose bottom end is closed with parafilm is placed onto the chamber. The cylinder contains the blood/active compound preparation, which can be imbibed by the fleas through the parafilm membrane.
After 2 days, the kill in % is determined 100% means that all fleas have been killed; 0% means that none of the fleas have been killed.

adult Musca domestica = assay: Musca domestica test (MUSCDO); assay type: in vivo; details: 100 ppm, after 2 days
Experimental: (§3) Musca domestica Test (MUSCDO) [table] To produce a suitable active compound formulation, 10 mg of active compound are mixed with 0.5 ml of dimethyl sulfoxide, and the concentrate is diluted with water to the desired concentration. Vessels containing a sponge treated with the active compound formulation of the desired concentration are populated with adult Musca domestica. After 2 days, the kill in % is determined 100% means that all flies have been killed; 0% means that no flies have been killed.

Lucilia cuprina larvae = assay: Lucilia cuprina test (LUCICU); assay type: in vivo; details: 100 ppm, after 2 days
Experimental: as §3, with “Lucilia cuprina” for “Musca domestica”, “(LUCICU)” for “(MUSCDO)”, “horse meat” for “a sponge”, “about 20 Lucilia cuprina larvae.” for “adult Musca domestica.”, “the larvae” for “flies”, “none of the larvae” for “no flies”

[5] = log P by HPLC on reversed-phase column (C18), EEC directive 79/831 Annex V.A8; assay type: physicochemical; details: for chromatographic logP: reversed-phase HPLC column (C18)
Experimental: a) The determination of the W by LC-MS in the acidic range is effected at pH 2.7, acetonitrile (contains 0.1% formic acid) and water as eluents; linear gradient from 10% acetonitrile to 95% acetonitrile, instrument: Agilent 1100 LC-System, Agilent MSD System, HTS PAL. The log P values reported in the tables and Preparation Examples above were determined in accordance with EEC directive 79/831 Annex V.A8 by HPLC (High Performance Liquid Chromatography) using a reversed-phase column (C18). Temperature 43° C. The calibration is effected with unbranched alkan-2-ones (having 3 to 16 carbon atoms), for which the log P values are known.

[6] = HPLC, acidic range pH 2.7, 43° C.
[7] = HPLC, acidic range pH 2.7, 43° C., read-out: log p

Structure (SMILES)	efficacy (laying of fertile eggs) (Boophilus microplus)	efficacy [1]	efficacy [2]	efficacy [3]	efficacy [4]	efficacy (kill) (Ctenocephalides felis)	efficacy (kill) (adult Musca domestica)	efficacy (kill) (Lucilia cuprina larvae)	log p [5, 6]	pest or weed control at 100 g/ha ([3]; Phaedon cochleariae, 168 h)	chromatographic logP ([5]; pH 2.7, final compounds of the synthesis examples, read-out: log P (HPLC-MS))	Emax at 4 g/ha ([1]; Tetranychus urticae, 144 h, TETRUR, 4 g of ai/ha, 6 d, read-out: % Efficacy dat)	percent efficacy (larval mortality) at 0.8 g/ha ([3]; Phaedon cochleariae, 168 h, PHAECO, 0.8 g of ai/ha, 7 d, read-out: % Efficacy dat)	Emax at 4 g/ha ([4]; Spodoptera frugiperda, 168 h, SPODFR, 4 g of ai/ha, 7 d, read-out: % Efficacy dat)	chromatographic logP [5, 7]	Emax at 100 g/ha ([1]; Tetranychus urticae, 144 h, TETRUR, 100 g of ai/ha, 6 d, read-out: % Efficacy dat)
CCn1c(C(=O)NC(c2cccc(C(F)(F)F)c2)C(F)(F)F)cc2cc(C(=O)NC3(C#N)CC3)c(Cl)nc21 (stereo not drawn) [Compound 11]	100%	100%	100%	100%	100%	100%	100%	100%	3.68	–	–	–	–	–	–	–
CCn1c(C(=O)NC(c2ccc(F)c(C(F)(F)F)c2)C(F)(F)F)cc2cc(C(=O)NC3CC3)c(Cl)nc21 (stereo not drawn) [Compound 29]	100%	90%	–	100%	100%	95%	100%	100%	–	–	–	–	–	–	–	–
CCn1c(C(=O)NC(c2ccc(F)c(C(F)(F)F)c2)C(F)(F)F)cc2cc(C(=O)NC3(C#N)CC3)c(Cl)nc21 (stereo not drawn) [Compound 53]	100%	100%	–	100%	100%	100%	100%	100%	3.77	–	–	–	–	–	–	–
CCn1c(C(=O)NC(c2cccc(C(F)(F)F)c2)C(F)(F)F)cc2cc(C(=O)NC3CC3)c(Cl)nc21 (stereo not drawn) [Compound 12]	100%	100%	–	100%	100%	100%	100%	100%	3.70	–	–	–	–	–	–	–
CCn1c(C(=O)NC(c2ccc(F)c(C(F)(F)F)c2)C(F)(F)F)cc2cc(C(=O)NC3(C#N)CC3)c(C)nc21 (stereo not drawn) [Compound 75]	–	100%	90%	100%	100%	–	–	–	3.64	–	–	–	–	–	–	–
CCn1c(C(=O)NC(c2ccc(F)c(Cl)c2)C(F)(F)F)cc2cc(C(=O)NC3(C(N)=S)CC3)c(Cl)nc21 (stereo not drawn) [Compound 65]	100%	90%	–	100%	100%	100%	80%	100%	3.51	–	–	–	–	–	–	–
CCn1c(C(=O)NC(c2cccc(C(F)(F)F)c2)C(F)(F)F)cc2cc(C(=O)NC3CC3)c(C)nc21 (stereo not drawn) [Compound 1, N^5-Cyclopropyl-1-ethyl-6-methyl-N^2-{2,2,2-trifluoro-1-[3-(trifluoromethyl)phenyl]ethyl}-1H-pyrrolo[2,3-b]pyridine-2,5-dicarboxamide]	100%	90%	–	–	100%	100%	100%	100%	–	100%	3.52	–	–	–	–	–
Cn1c(C(=O)NC(c2cccc(C(F)(F)F)c2)C(F)(F)F)cc2cc(C(=O)NC3CC3)c(Cl)nc21 (stereo not drawn) [Compound 22]	100%	100%	–	–	100%	95%	100%	100%	–	100%	–	90%	100%	100%	3.4	–
CCn1c(C(=O)NC(c2cc(Cl)c(F)c(Cl)c2)C(F)(F)F)cc2cc(C(=O)NC3(C#N)CC3)c(Cl)nc21 (stereo not drawn) [Compound 27]	100%	100%	–	100%	100%	100%	100%	100%	4.11	–	–	–	–	–	–	–
CCn1c(C(=O)NC(c2ccc(Cl)c(Cl)c2)C(F)(F)F)cc2cc(C(=O)NC3(C#N)CC3)c(Cl)nc21 (stereo not drawn) [Compound 32]	100%	100%	–	100%	100%	100%	100%	100%	3.94	–	–	–	–	–	–	–
CCn1c(C(=O)NC(c2cc(Cl)c(F)c(Cl)c2)C(F)(F)F)cc2cc(C(=O)NC3(C(N)=S)CC3)c(Cl)nc21 (stereo not drawn) [Compound 64]	100%	100%	–	100%	100%	100%	100%	100%	3.97	–	–	–	–	–	–	–
CCn1c(C(=O)NC(c2cc(Cl)c(F)c(Cl)c2F)C(F)(F)F)cc2cc(C(=O)NC3(C(N)=S)CC3)c(Cl)nc21 (stereo not drawn) [Compound 63]	100%	90%	–	100%	100%	100%	100%	100%	4.20	–	–	–	–	–	–	–
CCn1c(C(=O)NC(c2cccc(C(F)(F)F)c2)C(F)(F)F)cc2cc(C(=O)NC3CCC3)c(Cl)nc21 (stereo not drawn) [Compound 15]	–	–	90%	100%	–	–	–	–	4.12	–	–	–	–	–	–	–
CCn1c(C(=O)NC(c2cccc(C(F)(F)F)c2)C(F)(F)F)cc2cc(C(=O)NCC#N)c(Cl)nc21 (stereo not drawn) [Compound 42]	100%	90%	–	–	–	100%	100%	100%	–	100%	–	–	–	–	3.5	90%
CCn1c(C(=O)NC(c2ccc(F)c(Cl)c2)C(F)(F)F)cc2cc(C(=O)NC3CC3)c(Cl)nc21 (stereo not drawn) [Compound 16]	100%	90%	–	100%	–	100%	100%	100%	3.61	–	–	–	–	–	–	–
